Type in all cases: functional, cell-based
One test has as its system MIA PaCa-2. Put plainly: Cytotoxicity against human MIA PaCa-2 cells harboring KRAS G12C mutant assessed as cell growth inhibition incubated for 24 hrs by MTT assay. Conditions: MIA PaCa-2, 24 h. In general terms: Tetrazolium assays rely on reduction of a dye to a coloured formazan, in cell work by metabolically active cells.
Test [1] can be described thus: Cytotoxicity against human PANC-1 cells […] assessed as cell growth inhibition incubated for 24 hrs by MTT assay. Conditions: PANC-1, 24 h.
Another test relates to NCM460. The experiment in a line: Cytotoxicity against human NCM460 cells harboring wild-type KRAS assessed as cell growth inhibition incubated for 24 hrs by MTT assay. Conditions: NCM460, 24 h.
Another test has as its system PANC-1. Put plainly: Cytotoxicity against human PANC-1 cells harboring KRAS G12D mutant assessed as cell growth inhibition incubated for 24 hrs by MTT assay. Conditions: PANC-1, 24 h.

The IC50 is the concentration that gives 50% inhibition.

A value given as a limit tells only on which side of the number the result lay.

`CCN(CC)c1ccc2cc(/C=C/c3ccc4cc(F)c(NCc5ccccc5C)cc4[n+]3C)c(=O)oc2c1`: the IC50 was less than 1.3 µM in the test on MIA PaCa-2, 4.6 µM in test [1], 18.7 µM with NCM460 and 5.9 µM in the test with PANC-1.
For `CCN(CC)c1ccc2cc(/C=C/c3cc(N4CCN(C)CC4)c4cc(F)c(NCc5cn([C@@H]6O[C@H](CO)[C@@H](O)[C@H](O)[C@H]6O)nn5)cc4[n+]3C)c(=O)oc2c1`, the IC50 (in the test with MIA PaCa-2; in test [1]; in the test on NCM460; in the test with PANC-1) was greater than 40 µM each time.
As for `CCN(CC)c1ccc2cc(/C=C/c3cc(N4CCN(C)CC4)c4cc(F)c(NCc5cn(CCCN(C)C)nn5)cc4[n+]3C)c(=O)oc2c1`, the IC50 with MIA PaCa-2 was greater than 40 µM; in test [1], greater than 40 µM; in the test on NCM460, greater than 40 µM; in the test on PANC-1 it was 35.2 µM.
Take `CCN(CC)CCCn1cc(CNc2cc3c(cc2F)c(N2CCN(C)CC2)cc(/C=C/c2cc4ccc(N(CC)CC)cc4oc2=O)[n+]3C)nn1`: the IC50 (with MIA PaCa-2; in test [1]; in the test with NCM460; in the test on PANC-1) was greater than 40 µM in each case.
On to `CCN(CC)c1ccc2cc(/C=C/c3cc(NCCCN4CCCC4)c4cc(F)c(NCCCN5CCCC5)cc4[n+]3C)c(=O)oc2c1`, for which the IC50 (with MIA PaCa-2; in test [1]; with NCM460; with PANC-1) was greater than 40 µM each time.
As for `CCN(CC)c1ccc2cc(/C=C/c3ccc4cc(F)c(N5CCN(Cc6cn(CCCN7CCCC7)nn6)CC5)cc4[n+]3C)c(=O)oc2c1`, the IC50 was greater than 40 µM with MIA PaCa-2, 13 µM in test [1], greater than 40 µM in the test on NCM460 and 19.8 µM with PANC-1.
With `CCCCN(CCCC)CCCn1cc(CN2CCN(c3cc4c(ccc(/C=C/c5cc6ccc(N(CC)CC)cc6oc5=O)[n+]4C)cc3F)CC2)nn1`, the IC50 is 7 µM with MIA PaCa-2, greater than 40 µM in test [1], greater than 40 µM with NCM460 and 26 µM in the test on PANC-1.
On to `CCN(CC)c1ccc2cc(/C=C/c3ccc4cc(F)c(NCCO)cc4[n+]3C)c(=O)oc2c1`, for which the IC50 in the test on MIA PaCa-2 was 7.2 µM; in test [1], greater than 40 µM; with NCM460 it was greater than 40 µM; in the test on PANC-1, 38.2 µM.
In the case of `CCN(CC)CCCn1cc(CN2CCN(c3cc4c(ccc(/C=C/c5cc6ccc(N(CC)CC)cc6oc5=O)[n+]4C)cc3F)CC2)nn1`, the IC50 (with MIA PaCa-2; in test [1]; in the test on NCM460; in the test on PANC-1) was greater than 40 µM each time.
Regarding `CCN(CC)c1ccc2cc(/C=C/c3ccc4cc(F)c(N5CCN(Cc6cn(CCCN7CCOCC7)nn6)CC5)cc4[n+]3C)c(=O)oc2c1`, the IC50 in the test on MIA PaCa-2 is 23.4 µM; in test [1], greater than 40 µM; in the test with NCM460 it was greater than 40 µM; in the test on PANC-1, greater than 40 µM.
For `CCN(CC)c1ccc2cc(/C=C/c3ccc4cc(F)c(N5CCN(C(C)=O)CC5)cc4[n+]3C)c(=O)oc2c1`, the IC50 in the test on MIA PaCa-2 was 5.6 µM; in test [1], greater than 40 µM; in the test with NCM460, greater than 40 µM; in the test with PANC-1, 32.6 µM.
As to `CCN(CC)c1ccc2cc(/C=C/c3cc(NCCN4CCCC4)c4cc(F)c(NCCN5CCCC5)cc4[n+]3C)c(=O)oc2c1`, the IC50 in the test with MIA PaCa-2 was 17 µM; in test [1] it was greater than 40 µM; with NCM460 it was greater than 40 µM; in the test on PANC-1, greater than 40 µM.
As for `CCN(CC)c1ccc2cc(/C=C/c3cc(N4CCN(C)CC4)c4cc(F)c(NCc5cn(CCC(=O)O)nn5)cc4[n+]3C)c(=O)oc2c1`, the IC50 (in the test on MIA PaCa-2; in test [1]; in the test with NCM460; with PANC-1) was greater than 40 µM throughout.
With `CCN(CC)c1ccc(Nc2cc3c(ccc(/C=C/c4cc5ccc(N(CC)CC)cc5oc4=O)[n+]3C)cc2F)cc1`, the IC50 is less than 13 µM in the test on MIA PaCa-2, less than 1.3 µM in test [1], less than 1.3 µM with NCM460 and less than 1.3 µM with PANC-1.
Consider `CCN(CC)c1ccc2cc(/C=C/c3ccc4cc(F)c(NCCCn5ccnc5)cc4[n+]3C)c(=O)oc2c1`, for which the IC50 in the test with MIA PaCa-2 was 13.4 µM; in test [1] it was greater than 40 µM; with NCM460, greater than 40 µM; in the test with PANC-1, greater than 40 µM.
For `CCN(CC)c1ccc2cc(/C=C/c3cc(N4CCN(C)CC4)c4cc(F)c(NCc5cn(CCCN6CCCCC6)nn5)cc4[n+]3C)c(=O)oc2c1`, the IC50 (in the test on MIA PaCa-2; in test [1]; in the test on NCM460; with PANC-1) was greater than 40 µM throughout.
Turning to `CCN(CC)c1ccc2cc(/C=C/c3ccc4cc(F)c(N5CCN(C(=O)C(C)C)CC5)cc4[n+]3C)c(=O)oc2c1`, the IC50 in the test on MIA PaCa-2 was 3.4 µM; in test [1], greater than 40 µM; in the test on NCM460 it was greater than 40 µM; in the test with PANC-1 it was 39.6 µM.
As to `CCN1CCN(c2ccc(Nc3cc4c(ccc(/C=C/c5cc6ccc(N(CC)CC)cc6oc5=O)[n+]4C)cc3F)cc2)CC1`, the IC50 in the test on MIA PaCa-2 is 8.8 µM; in test [1] it was greater than 40 µM; in the test on NCM460, greater than 40 µM; in the test on PANC-1 it was 15.2 µM.
Consider `CCN(CC)c1ccc2cc(/C=C/c3ccc4cc(F)c(N5CCN(Cc6cn(CCCN(C)C)nn6)CC5)cc4[n+]3C)c(=O)oc2c1`, for which the IC50 (in the test with MIA PaCa-2; in test [1]; in the test on NCM460; with PANC-1) was greater than 40 µM each time.
Consider `CCN(CC)c1ccc2cc(/C=C/c3ccc4cc(F)c(NCCc5nc6ccccc6[nH]5)cc4[n+]3C)c(=O)oc2c1`, for which the IC50 in the test on MIA PaCa-2 was 4 µM; in test [1] it was greater than 40 µM; in the test on NCM460 it was greater than 40 µM; in the test with PANC-1, 19.2 µM.
As for `CCN(CC)c1ccc2cc(/C=C/c3ccc4cc(F)c(Nc5ccc(N6CCN(C)CC6)nc5)cc4[n+]3C)c(=O)oc2c1`, the IC50 is 9 µM with MIA PaCa-2, greater than 40 µM in test [1], 10.4 µM in the test on NCM460 and greater than 40 µM in the test with PANC-1.
Regarding `CCN(CC)c1ccc2cc(/C=C/c3cc(NCCCn4ccnc4)c4cc(F)c(NCCCn5ccnc5)cc4[n+]3C)c(=O)oc2c1`, the IC50 is 33.2 µM in the test with MIA PaCa-2, greater than 40 µM in test [1], greater than 40 µM in the test on NCM460 and greater than 40 µM in the test with PANC-1.
Turning to `CCN(CC)c1ccc2cc(/C=C/c3cc(N4CCN(C)CC4)c4cc(F)c(NCc5cn(CCCN6CCCC6)nn5)cc4[n+]3C)c(=O)oc2c1`, the IC50 (in the test on MIA PaCa-2; in test [1]; with NCM460; with PANC-1) was greater than 40 µM in each case.
As to `CCN(CC)c1ccc2cc(/C=C/c3cc(N4CCN(C)CC4)c4cc(F)c(NCc5cn(CCCN6CCOCC6)nn5)cc4[n+]3C)c(=O)oc2c1`, the IC50 (with MIA PaCa-2; in test [1]; in the test with NCM460; in the test on PANC-1) was greater than 40 µM in each case.
Take `CCN(CC)c1ccc2cc(/C=C/c3ccc4cc(F)c(N5CCN(Cc6cn(CCc7cccs7)nn6)CC5)cc4[n+]3C)c(=O)oc2c1`: the IC50 is 6.8 µM with MIA PaCa-2, greater than 40 µM in test [1], greater than 40 µM in the test on NCM460 and 23.8 µM in the test on PANC-1.
As to `CCN(CC)c1ccc2cc(/C=C/c3cc(N4CCN(C)CC4)c4cc(F)c(NCc5cn(CCC(=O)OC)nn5)cc4[n+]3C)c(=O)oc2c1`, the IC50 (in the test on MIA PaCa-2; in test [1]; in the test on NCM460; in the test on PANC-1) was greater than 40 µM throughout.
Consider `CCN(CC)c1ccc2cc(/C=C/c3ccc4cc(F)c(NCCOCCO)cc4[n+]3C)c(=O)oc2c1`, for which the IC50 in the test with MIA PaCa-2 was 9.8 µM; in test [1], greater than 40 µM; with NCM460, greater than 40 µM; in the test with PANC-1, greater than 40 µM.
Take `CCN(CC)c1ccc2cc(/C=C/c3ccc4cc(F)c(NCCCOC(C)C)cc4[n+]3C)c(=O)oc2c1`: the IC50 in the test on MIA PaCa-2 amounted to 1.5 µM; in test [1], 6 µM; in the test with NCM460, 23.2 µM; with PANC-1, 2.9 µM.
The matching figures for `CCN(CC)c1ccc2cc(/C=C/c3ccc4cc(F)c(N5CCN(Cc6cn(CCC(=O)O)nn6)CC5)cc4[n+]3C)c(=O)oc2c1`: 12.6 µM, greater than 40 µM, greater than 40 µM and greater than 40 µM.
The matching figures for `CCN(CC)c1ccc2cc(/C=C/c3ccc4cc(F)c(NCCN(C(C)C)C(C)C)cc4[n+]3C)c(=O)oc2c1`: 1.3 µM, 13 µM, 15 µM and 3.4 µM.
On the same counts, the results for `CCN(CC)c1ccc2cc(/C=C/c3ccc4cc(F)c(N5CCOCC5)cc4[n+]3C)c(=O)oc2c1` are 29.6 µM, greater than 40 µM, greater than 40 µM and 13.2 µM.
On to `CCN(CC)c1ccc2cc(/C=C/c3ccc4cc(F)c(NCc5ccccc5C(F)(F)F)cc4[n+]3C)c(=O)oc2c1`, for which the IC50 with MIA PaCa-2 is less than 1.3 µM; in test [1], 3 µM; with NCM460, 12.2 µM; in the test on PANC-1, 7 µM.
The matching figures for `CCN(CC)c1ccc2cc(/C=C/c3ccc4cc(F)c(NCC5CCOCC5)cc4[n+]3C)c(=O)oc2c1`: 10.8 µM, 11.3 µM, greater than 40 µM and 32.4 µM.
On to `CCN(CC)c1ccc2cc(/C=C/c3ccc4cc(F)c(N5CCN(Cc6cn(CCCO)nn6)CC5)cc4[n+]3C)c(=O)oc2c1`, for which the IC50 (with MIA PaCa-2; in test [1]; in the test with NCM460; in the test on PANC-1) was greater than 40 µM in each case.
Take `CCN(CC)c1ccc2cc(/C=C/c3ccc4cc(F)c(N5CCN(Cc6cn([C@@H]7O[C@H](CO)[C@@H](O)[C@H](O)[C@H]7O)nn6)CC5)cc4[n+]3C)c(=O)oc2c1`: the IC50 (with MIA PaCa-2; in test [1]; with NCM460; in the test with PANC-1) was greater than 40 µM each time.
For the compound `CCN(CC)c1ccc2cc(/C=C/c3cc(NCCCN4CCOCC4)c4cc(F)c(NCCCN5CCOCC5)cc4[n+]3C)c(=O)oc2c1`, the IC50 was 4.6 µM in the test on MIA PaCa-2, greater than 40 µM in test [1], greater than 40 µM with NCM460 and 29 µM in the test with PANC-1.

Source of the values: ChEMBL document CHEMBL5537197, “Discovery of Novel Coumarin-quinolinium Derivatives as Pan-KRAS Translation Inhibitors by Targeting 5'-UTR RNA G-Quadruplexes” (J Med Chem, 2024).
